Consider 7 compounds from patent US7098217B2, “3,7-dihydro-purine-2,6-dione derivatives as CRF receptor ligands” (Bristol-Myers Squibb Company, priority 2001, dated 2006).

The term melting point denotes the temperature, or range, at which the solid turns liquid.

SMILES strings stand for the structures.

`CCc1nc2c(c(=O)n(C)c(=O)n2-c2ccc(Cl)cc2Cl)n1Cc1ccc(OC)cc1` [Example 7, 3-(2,4-dichlorophenyl)-8-ethyl-7-(4-methoxybenzyl)-1-methyl-3,7-dihydro-1H-purine-2,6-dione] gave a melting point of 209 to 210 °C.
`CCCC(CCC)n1c(CC)nc2c1c(=O)n(C)c(=O)n2-c1c(OC)ccnc1C` [Example 117, 8-ethyl-7-(4-heptyl)-3-(4-methoxy-2-methylpyrid-3-yl)-1-methyl-3,7-dihydro-1H-purine-2,6-dione] showed a melting point of 124 to 126 °C.
Under `CCc1nc2c(c(=O)n(C)c(=O)n2-c2ccc(Cl)cc2Cl)n1C(CC)CC` [Example 1, 3-(2,4-dichlorophenyl)-8-ethyl-1-methyl-7-(3-pentyl)-3,7-dihydro-1H-purine-2,6-dione] stands 186 to 187 °C; under `CCCC(CCC)n1c(CC)nc2c1c(=O)n(C)c(=O)n2-c1c(C)cc(C)cc1C` [Example 79, 8-ethyl-7-(4-heptyl)-1-methyl-3-(2,4,6-trimethylphenyl)-3,7-dihydro-1H-purine-2,6-dione], 195 to 195.5 °C; under `C=CCC(CC=C)n1c(CC)nc2c1c(=O)n(C)c(=O)n2-c1ccc(Cl)cc1Cl` [Example 4, 7-(1-allyl-3-butenyl)-3-(2,4-dichlorophenyl)-8-ethyl-1-methyl-3,7-dihydro-1H-purine-2,6-dione], 145 to 146 °C.
The figure for `CCC(CC)n1cnc2c1c(=O)n(C)c(=O)n2-c1ccc(Cl)cc1Cl` [Example 5, 3-(2,4-dichlorophenyl)-1-methyl-7-(3-pentyl)-3,7-dihydro-1H-purine-2,6-dione] is 158 to 159 °C.
Under `CCCC(CCC)n1c(CC)nc2c1c(=O)n(C)c(=O)n2-c1ccc(Cl)cc1Cl` [Example 2, 3-(2,4-dichlorophenyl)-8-ethyl-7-(4-heptyl)-1-methyl-3,7-dihydro-1H-purine-2,6-dione] stands 185 to 186 °C.
